From PMC9127186, “Molecular Basis Underlying Hepatobiliary and Renal Excretion of Phenolic Acids of Salvia miltiorrhiza Roots (Danshen)” (Frontiers in Pharmacology, 2022)

Key:
[1] = target: T1, human OAT3 (Homo sapiens, UniProt Q8TCC7); test: Cellular transport assay, HEK-293 cells expressing human OAT3; conditions: positive substrate 20 μM, 10 min; human OAT3
T1 sequence (Q8TCC7 1-542): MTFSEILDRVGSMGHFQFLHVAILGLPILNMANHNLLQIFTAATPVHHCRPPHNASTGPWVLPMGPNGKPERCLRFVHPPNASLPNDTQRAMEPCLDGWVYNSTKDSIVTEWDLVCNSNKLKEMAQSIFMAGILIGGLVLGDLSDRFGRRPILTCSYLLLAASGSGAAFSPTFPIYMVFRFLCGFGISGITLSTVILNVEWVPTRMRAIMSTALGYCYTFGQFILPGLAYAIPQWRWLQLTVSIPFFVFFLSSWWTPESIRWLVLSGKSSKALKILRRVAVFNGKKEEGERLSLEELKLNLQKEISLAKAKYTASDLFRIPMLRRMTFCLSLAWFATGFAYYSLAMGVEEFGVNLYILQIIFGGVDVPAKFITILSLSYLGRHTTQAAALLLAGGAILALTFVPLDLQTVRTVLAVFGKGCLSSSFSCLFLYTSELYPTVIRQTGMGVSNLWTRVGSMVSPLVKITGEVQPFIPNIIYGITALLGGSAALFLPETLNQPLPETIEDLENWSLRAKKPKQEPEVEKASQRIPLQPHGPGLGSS
Experimental: (§1) Briefly, HEK-293 cells were grown, at 37°C and 5% CO2, in Dulbecco’s modified Eagle’s medium, which was fortified with 10% fetal bovine serum, 1% minimal essential medium nonessential amino acids, and 1% antibiotic-antimycotic solution. A day before transfection, cells were seeded onto 24-well poly-D-lysine-coated plates at a density of 2 × 10^5 cells per well. After incubation at 37°C and 5% CO2 for 24 h, the expression plasmid and the empty vector were introduced separately into the HEK293 cells with Lipofectamine 2000 transfection reagent (Invitrogen, Carlsbad, CA, United States), according to the manufacturer’s protocol to yield transporter-expressing cells and mock cells, respectively.
(§2) Transport studies were performed 48 h after the transfection. […] Differential uptake between the transfected cells and mock cells was defined as net transport ratio (TransportTC/TransportMC ratio), where TransportTC and TransportMC are the transport rates of a test Danshen compound into transfected and mock cells, respectively. […] The determination was performed under linear uptake conditions by incubation for 5 min. Table 1 summarizes the final concentrations of the test Danshen compounds for different transporters. All the incubation samples were analyzed by liquid chromatography/mass spectrometry.
(§3) GraFit software (version 5.0; Erithacus Software Ltd, Surrey, United Kingdom) was used to determine the K m and V max values by nonlinear regression analysis of initial transport rates as a function of substrate concentration.

[2] = target: T2, human OATP2B1 (Homo sapiens, UniProt O94956); test: Cellular transport assay, HEK-293 cells expressing human OATP2B1; conditions: positive substrate 20 μM, 10 min; human OATP2B1
T2 sequence (O94956 1-709): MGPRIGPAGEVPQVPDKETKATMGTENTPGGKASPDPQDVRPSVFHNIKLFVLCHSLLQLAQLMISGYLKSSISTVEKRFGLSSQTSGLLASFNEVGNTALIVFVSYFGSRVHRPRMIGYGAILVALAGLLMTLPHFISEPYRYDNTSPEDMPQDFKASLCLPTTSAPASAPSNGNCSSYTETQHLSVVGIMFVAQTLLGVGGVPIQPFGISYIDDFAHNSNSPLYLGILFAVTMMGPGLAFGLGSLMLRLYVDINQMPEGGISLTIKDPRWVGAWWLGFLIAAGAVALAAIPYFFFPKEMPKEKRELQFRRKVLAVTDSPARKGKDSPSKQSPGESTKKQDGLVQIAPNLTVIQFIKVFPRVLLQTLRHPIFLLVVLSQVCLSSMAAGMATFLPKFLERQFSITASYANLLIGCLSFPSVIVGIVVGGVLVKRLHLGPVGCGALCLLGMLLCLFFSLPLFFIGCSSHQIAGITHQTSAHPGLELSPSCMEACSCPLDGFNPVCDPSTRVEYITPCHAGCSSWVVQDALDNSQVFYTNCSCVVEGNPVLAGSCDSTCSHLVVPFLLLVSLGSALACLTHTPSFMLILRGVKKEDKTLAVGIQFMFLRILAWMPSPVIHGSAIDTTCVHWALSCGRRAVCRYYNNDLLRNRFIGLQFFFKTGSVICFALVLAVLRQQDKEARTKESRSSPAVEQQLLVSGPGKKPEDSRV

[3] = target: T3, rat Oat3 (Rattus norvegicus, UniProt Q9R1U7); test: Cellular transport assay, HEK-293 cells expressing rat Oat3; conditions: positive substrate 20 μM, 10 min; rat Oat3
T3 sequence (Q9R1U7 1-536): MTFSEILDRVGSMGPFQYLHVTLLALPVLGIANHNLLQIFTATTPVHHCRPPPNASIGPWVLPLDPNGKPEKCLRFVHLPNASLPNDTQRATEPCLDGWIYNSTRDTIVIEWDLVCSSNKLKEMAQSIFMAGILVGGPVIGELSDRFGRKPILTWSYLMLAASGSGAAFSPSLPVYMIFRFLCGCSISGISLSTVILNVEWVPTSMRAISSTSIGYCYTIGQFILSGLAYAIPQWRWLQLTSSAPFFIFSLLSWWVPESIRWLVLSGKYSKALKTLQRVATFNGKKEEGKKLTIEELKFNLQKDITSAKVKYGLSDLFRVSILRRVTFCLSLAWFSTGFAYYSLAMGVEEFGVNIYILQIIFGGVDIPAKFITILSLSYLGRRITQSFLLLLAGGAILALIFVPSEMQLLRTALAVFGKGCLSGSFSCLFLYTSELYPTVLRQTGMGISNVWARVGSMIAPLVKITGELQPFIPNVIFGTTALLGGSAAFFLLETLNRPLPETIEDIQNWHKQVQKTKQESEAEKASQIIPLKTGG
Experimental: as §1, §2, §3

[4] = target: T4, human OAT4 (Homo sapiens, UniProt Q9NSA0); test: Cellular transport assay, HEK-293 cells expressing human OAT4; conditions: positive substrate 20 μM, 10 min; human OAT4
T4 sequence (Q9NSA0 1-550): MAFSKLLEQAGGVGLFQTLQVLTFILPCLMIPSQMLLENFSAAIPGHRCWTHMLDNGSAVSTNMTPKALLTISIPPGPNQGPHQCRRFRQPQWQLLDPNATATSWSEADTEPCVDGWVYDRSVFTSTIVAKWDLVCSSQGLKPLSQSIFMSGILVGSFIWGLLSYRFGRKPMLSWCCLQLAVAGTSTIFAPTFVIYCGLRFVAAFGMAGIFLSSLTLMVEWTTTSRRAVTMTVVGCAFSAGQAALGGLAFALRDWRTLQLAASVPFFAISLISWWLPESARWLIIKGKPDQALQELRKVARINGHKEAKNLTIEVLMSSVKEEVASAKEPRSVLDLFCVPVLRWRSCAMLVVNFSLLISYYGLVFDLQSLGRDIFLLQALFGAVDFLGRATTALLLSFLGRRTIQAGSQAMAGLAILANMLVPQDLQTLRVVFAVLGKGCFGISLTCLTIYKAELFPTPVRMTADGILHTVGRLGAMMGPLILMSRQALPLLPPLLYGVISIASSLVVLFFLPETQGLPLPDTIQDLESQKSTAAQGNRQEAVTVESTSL
Experimental: as §1, §2, §3

C[C@]12CC[C@@H]3c4ccc(OS(=O)(=O)O)cc4CC[C@H]3[C@@H]1CCC2=O [E1S, estrone-3-sulfate, reference compound]
TransportTC/TransportMC ratio, positive substrate [1]: 10.2 ± 1.2 (E1S)
TransportTC/TransportMC ratio, positive substrate [2]: 41.1 ± 1.5 (E1S)
TransportTC/TransportMC ratio, positive substrate [3]: 21.4 ± 6.8 (E1S)
TransportTC/TransportMC ratio, positive substrate [4]: 7.69 ± 1.74 (E1S)
